Source: patent US6849653B2, “Substituted pyrazolyl benzenesulfamide compounds for the treatment of inflammation” (Pharmacia Corporation, priority 2001, dated 2005)

Target: T1, IKK2 (IKKβ), rhIKK2 homodimer (Homo sapiens, UniProt O14920)
T1 construct: made in house; host or cells: insect cells (baculovirus; SF9)
T1 sequence (O14920 1-756): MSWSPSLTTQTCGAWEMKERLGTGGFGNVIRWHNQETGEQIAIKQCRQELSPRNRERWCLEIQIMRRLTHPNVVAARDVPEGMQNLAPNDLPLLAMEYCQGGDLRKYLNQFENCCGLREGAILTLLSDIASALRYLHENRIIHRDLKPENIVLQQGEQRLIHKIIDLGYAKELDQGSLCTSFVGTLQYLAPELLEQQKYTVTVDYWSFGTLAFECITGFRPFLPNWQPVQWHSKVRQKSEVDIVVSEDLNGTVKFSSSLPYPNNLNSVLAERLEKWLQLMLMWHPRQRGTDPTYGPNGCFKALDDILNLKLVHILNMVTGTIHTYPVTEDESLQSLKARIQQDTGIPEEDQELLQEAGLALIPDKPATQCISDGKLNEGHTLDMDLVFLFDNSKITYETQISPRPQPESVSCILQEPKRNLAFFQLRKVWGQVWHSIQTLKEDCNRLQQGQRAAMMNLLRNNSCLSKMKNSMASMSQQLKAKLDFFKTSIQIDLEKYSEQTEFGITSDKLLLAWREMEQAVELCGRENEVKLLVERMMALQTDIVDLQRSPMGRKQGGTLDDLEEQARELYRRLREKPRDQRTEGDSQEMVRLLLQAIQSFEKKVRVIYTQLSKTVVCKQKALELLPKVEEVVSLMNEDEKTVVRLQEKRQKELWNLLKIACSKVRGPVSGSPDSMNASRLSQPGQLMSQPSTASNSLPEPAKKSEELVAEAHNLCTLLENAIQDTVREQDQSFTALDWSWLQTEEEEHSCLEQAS
Experiment: IKKβ (IKK2) Resin Enzyme Assay
Type: biochemical
Settings: Table 2; values given as bins; read-out: IKK2 Resin IC 50
Text: cDNAs of human IKK1 and IKK2 were amplified by reverse transcriptase-polymerase chain reaction from human placental RNA (Clonetech). hIKK1 was subcloned into pFastBac HTa (Life Technologies) and expressed as N-terminal His6-tagged fusion protein. The hIKK2 cDNA was amplified using a reverse oligonucleotide primer which incorporated the peptide sequence for a FLAG-epitope tag at the C-terminus of the IKK2 coding region (DYKDDDDKD). The hIKK2:FLAG cDNA was subcloned into the baculovirus vector pFastBac. The rhIKK2 ([…]) mutant was constructed in the same vector used for wild type rhIKK2 using a QuikChange™ mutagenesis kit (Stratagene). Viral stocks of each construct were used to infect insect cells grown in 40L suspension culture. […] Cell lysates were stored at −80° C. until purification of the recombinant proteins was undertaken as described below.
Isolation of rhIKK2 Homodimer
A 10 liter culture of baculovirus-expressing IKK2 tagged with FLAG peptide was centrifuged and the cell pellet (MOI=0.1 and I=72 hrs) was re-suspended in buffer A. These cells were microfluidized, and centrifuged at 100,000×g for 45 min. Supernatant was passed over a G-25 column equilibrated with Buffer A. Protein peak was collected and incubated with anti-FLAG affinity resin on a rotator overnight in buffer B. The resin was washed in batch with 10-15 bed volumes of buffer C. Washed resin was poured into a column and rhIKK2 homodimer was eluted using 5 bed volumes of buffer B containing FLAG peptide. 5 mM DTT, 0.1% NP-40 and BSA (concentrated to 0.1% in final amount) was added to the eluted enzyme before concentrating in using an Amicon membrane with a molecular weight cut-off of 30 kDa. Enzyme was aliquoted and stored at −80° C.
IKKβ kinase activity was measured using a biotinylated IκBα peptide (Gly-Leu-Lys-Lys-Glu-Arg-Leu-Leu-Asp-Asp-Arg-His-Asp-Ser32-Gly-Leu-Asp-Ser36-Met-Lys-Asp-Glu-Glu) (American Peptide Co.). […] contained 5 μM biotinylated IκBα peptide, 0.1 μCi/reaction [γ-^33P] ATP (Amersham) (about 1×10^5 cpm), 1 μM ATP (Sigma), 1 mM DTT (Sigma), 2 mM MgCl2 (Sigma), 2 mM MnCl2 (Sigma), 10 mM NaF (Sigma), 25 mM Hepes (Sigma) buffer, pH 7.6 and 20 μl enzyme solution and […] inhibitor in a final volume of 50 μl. After incubation at 25° C. for 30 min, 150 μl resin (Dowex anion-exchange resin AG1X8 200-400 mesh) in 900 mM formate, pH 3.0 was added to each well to stop the reaction. Resin was allowed to settle for one hour and 50 ul of supernatant was removed to a Micolite-2 flat bottom plate (Dynex). 150 μl of scintillation fluid (Microscint 40) (Packard) was added to each well. Incorporation of [γ-^33P] ATP was measured using a Top-Count NXT (Packard).

Row | IC50 [µM] | Compound
1 | ≤ 1 | Cc1ccccc1C(=O)Nc1ccc2ccc3c(C(N)=O)nn(-c4ccc(S(C)(=O)=O)cc4)c3c2c1 [Example 38, 8-[(2-methylbenzoyl)amino]-1-[4-(methylsulfonyl)phenyl]-1H-benzo[g]indazole-3-carboxamide]
2 | ≤ 1 | CS(=O)(=O)c1ccc(-n2nc(C(N)=O)c3ccc4ccc(NC(=O)c5cccc(Cl)c5Cl)cc4c32)cc1 [Example 40, 8-[(2,3-dichlorobenzoyl)amino]-1-[4-(methylsulfonyl)phenyl]-1H-benzo[g]indazole-3-carboxamide]
3 | 1 to 10 | CS(=O)(=O)c1ccc(-n2nc(C(N)=O)c3ccc4ccc(NC(=O)c5ccccc5C(F)(F)F)cc4c32)cc1 [Example 39, 1-[4-(methylsulfonyl)phenyl]-8-{[2-(trifluoromethyl)benzoyl]amino}-1H-benzo[g]indazole-3-carboxamide]
4 | ≤ 1 | CS(=O)(=O)c1ccc(-n2nc(C(N)=O)c3ccc4ccc(NC(=O)c5ccccc5Cl)cc4c32)cc1 [Example 37, 8-[(2-chlorobenzoyl)amino]-1-[4-(methylsulfonyl)phenyl]-1H-benzo[g]indazole-3-carboxamide]

Same assay, conditions: Table 3; read-out: IKK2 Resin IC 50

Row | IC50 [µM] | Compound
5 | 10 to 100 | NC(=O)c1nn(-c2ccc(F)cc2)c2c1ccc1ccc(N)cc12 [Example 46, 8-amino-1-(4-fluorophenyl)-1H-benzo[g]indazole-3-carboxamide]
6 | ≤ 1 | CS(=O)(=O)Nc1ccc2ccc3c(C(N)=O)nn(-c4ccc(F)cc4)c3c2c1 [Example 50, 1-(4-fluorophenyl)-8-[(methylsulfonyl)amino]-1H-benzo[g]indazole-3-carboxamide]
7 | ≤ 1 | NC(=O)c1nn(-c2ccc(F)cc2F)c2c1ccc1ccc(NC(=O)c3cccnc3Cl)cc12 [Example 52, 8-{[(2-chloropyridin-3-yl)carbonyl]amino}-1-(2,4-difluorophenyl)-1H-benzo[g]indazole-3-carboxamide]
8 | ≤ 1 | NC(=O)c1nn(-c2ccc(F)cc2)c2c1ccc1ccc(NC(=O)c3ccncc3Cl)cc12 [Example 43, 8-[(3-chloroisonicotinoyl)amino]-1-(4-fluorophenyl)-1H-benzo[g]indazole-3-carboxamide]
9 | ≤ 1 | NC(=O)c1nn(-c2ccc(F)cc2)c2c1cc(Br)c1ccc(NC(=O)c3ccncc3Cl)cc12 [Example 44]
10 | ≤ 1 | NC(=O)c1nn(-c2ccc(F)cc2)c2c1ccc1ccc(NC(=O)c3cccnc3Cl)cc12 [Example 51, 8-{[(2-chloropyridin-3-yl)carbonyl]amino}-1-(4-fluorophenyl)-1H-benzo[g]indazole-3-carboxamide]
11 | 1 to 10 | NC(=O)c1nn(-c2ccc(F)cc2)c2c1ccc1ccc(NC(=O)c3ccccc3Cl)cc12 [Example 47, 8-[(2-chlorobenzoyl)amino]-1-(4-fluorophenyl)-1H-benzo[g]indazole-3-carboxamide]

Same assay, conditions: Table 4; values given as bins; read-out: IKK2 Resin IC 50

Row | IC50 [µM] | Compound
12 | ≤ 1 | NC(=O)c1nn(-c2ccc3c(c2)OCO3)c2c1ccc1ccc(NC(=O)c3ccccc3Cl)cc12 [Example 54, 1-(1,3-benzodioxol-5-yl)-8-[(2-chlorobenzoyl)amino]-1H-benzo[g]indazole-3-carboxamide]
13 | 1 to 10 | NC(=O)c1nn(-c2ccc3c(c2)OCO3)c2c1ccc1ccc(N)cc12 [Example 56, 8-amino-1-(1,3-benzodioxol-5-yl)-1H-benzo[g]indazole-3-carboxamide]
14 | ≤ 1 | NC(=O)c1nn(-c2ccc3c(c2)OCO3)c2c1cc(Br)c1ccc(NC(=O)c3cccnc3Cl)cc12 [Example 57, 1-(1,3-benzodioxol-5-yl)-5-bromo-8-{[(2-chloropyridin-3-yl)carbonyl]amino}-1H-benzo[g]indazole-3-carboxamide]
